This note sets out measurements from US11840560B2, “Prodrugs and uses thereof” (Novo Nordisk A/S, priority 2022, dated 2023).

One data set can be described thus: in vivo. Also on record: species or system beagle dogs. The settings on record: dog, po, 300 mg; for Tmax / half-life: male, beagle. The method, then:
The purpose of this method is to determine the terminal half-life and plasma exposure in vivo of the compounds of the present invention after p.o. administration to beagle dogs, i.e. the terminal half-life and concentration of test substance that reaches circulation with time. This is done in a pharmacokinetic (PK) study, where these parameters of the compound in question are determined. By terminal half-life is generally meant the period of time it takes to halve a certain plasma concentration, measured after the initial distribution phase.
Tablet compositions comprising the test compounds obtained from Example 1 and SNAC (sodium N-(8-(2-hydroxybenzoyl)amino)caprylate) were prepared according to methods known to the person skilled in the art by mixing test substance with roller compacted SNAC and magnesium stearate as e.g. described in WO 2019/149880. Each tablet was comprised of 7.7 mg magnesium stearate, 2-4 mg of each compound tested, and 300 mg SNAC.
Male beagle dogs, 1-7 years of age and weighing 9-17 kg during the study period, were included in the study. The dogs were dosed in a fasting state. The dogs were group housed in pens (12 hours light: 12 hours dark), and fed individually and restrictedly once daily with Royal Canin Medium Adult dog food (Royal Canin Products, China Branch, or Brogaarden A/S, Denmark). The dogs were used for repeated PK studies with a suitable wash-out period between successive dosing. An appropriate acclimatisation period was given prior to initiation of the first PK study. All handling, dosing, and blood sampling of the animals were performed by trained and skilled staff. Before the studies, the dogs were fasted overnight and from 0 to 4 hours after dosing. The dogs were restricted to water 1 hour before dosing until 4 hours after dosing, but otherwise had adlibitum access to water during the whole period.
The compositions were administered by a single oral dosing to the dogs in groups of 6-8 dogs. The tablets were administered in the following manner: 10 min prior to tablet administration, the dogs may be dosed subcutaneously with approximately 3 nmol/kg of SEQ ID NO.: 7 ([…]), then tablets were placed in the back of the mouth of the dog to prevent chewing. The mouth was then closed, and 10 mL of tap water was given by syringe or gavage to facilitate swallowing of the tablet.
One blood sample was drawn before dosing, and additional samples were drawn at predefined time points after dosing, such as for up to 600 hours, to adequately cover the full plasma concentration-time absorption profile of the test substance. For each blood sample time point, approximately 0.8 mL of whole blood was collected in a 1.5 mL EDTA-coated tube, which was gently turned to mix the sample with EDTA. Blood samples were collected in EDTA buffer (8 mM) and then centrifuged at 4° C. and 2000 g for 10 minutes. Plasma was pipetted into Micronic tubes on dry ice, and kept at −20° C. or lower until analysis. Blood samples were taken as appropriate, for example from a venflon in the cephalic vein in the front leg for the first 2 hours and then with syringe from the jugular vein for the rest of the time points. The first few drops were allowed to drain from the venflon to avoid heparin saline from the venflon in the sample. All blood samples were collected into test tubes containing EDTA for stabilisation and kept on ice until centrifugation. Plasma was separated from whole blood by centrifugation and the plasma was stored at −20° C. or lower until analysis.
The plasma was analysed for test substance using LC-MS (Liquid Chromatography-Mass Spectrometry) as known to the person skilled in the art. […]

A short description of a further data set: physchem. Type of data set: physicochemical. The settings on record: buffer, pH 7.4. The method, then: The assay was performed to investigate the conversion half-life of prodrug to drug of the prodrugs of the invention. The conversion half-life was investigated in vitro at pH 7.4 upon incubation at 37° C.
Test compounds were dissolved to a concentration of 100 μM in phosphate-buffered saline (140 mM NaCl, 2.07 mM KCl, 8.05 mM Na2HPO4, 1.96 mM KH2PO4, pH 7.4). Solution pH was measured after dissolution and adjusted to pH 7.4 with aqueous NaOH if necessary. The solution was filtered through a 0.22 μm syringe filter, then incubated in a water bath at 37° C. Aliquots were withdrawn at defined timepoints, e.g. every 24-72 hours, for LCMS analysis.
LCMS analysis was performed using the procedure defined in LCMS_A above. The AUC of the prodrug, active drug, and DKP were determined using UV detection at 214 nm, and the ratio of prodrug AUC over total AUC of prodrug plus active drug plus DKP was calculated. The negative natural logarithm of this ratio was plotted over time, and a linear regression of this relationship was then performed.
The prodrug to drug conversion half-life of the compounds of the invention was measured as described in General Methods for Measuring Conversion Half-life.

*1 amine or outer side, *2 acyl side, *3 side chain or, on linkers, in order; H or OH if unused. Where a SMILES comes first, the peptide text is derived from it. Side-chain parts run from the residue outwards. [ ]: non-standard residue; d: D form. The star is where a group is joined. N(2-Aminoethyl)Gly = O=C(CN(CCN[*:3])[*:1])[*:2]; C18 diacid = O=C(O)CCCCCCCCCCCCCCCCC(=O)*; C16 diacid = O=C(O)CCCCCCCCCCCCCCC(=O)*; γGlu = O=C(O)[C@H](CCC(=O)[*:2])N[*:1]; εLys = N[C@@H](CCCCN[*:1])C(=O)[*:2]; AEEA = NCCOCCOCC(=O)O; Aib = CC(C)(N)C(=O)O; Sar = CNCC(=O)O

The term Tmax denotes the time at which the peak concentration occurs. For orientation: half-life means the time in which the quantity being followed falls by half. Take `CC[C@H](C)[C@H](NC(=O)[C@H](CC(C)C)NC(=O)[C@H](Cc1c[nH]c2ccccc12)NC(=O)[C@H](CCC(N)=O)NC(=O)[C@@H](NC(=O)[C@H](Cc1ccccc1)NC(=O)[C@H](C)NC(=O)[C@H](CCCCNC(=O)COCCOCCNC(=O)COCCOCCNC(=O)CC[C@H](NC(=O)CCCCCCCCCCCCCCCCCCC(=O)O)C(=O)O)NC(=O)[C@H](CCC(N)=O)NC(=O)[C@H](C)NC(=O)[C@@H](NC(=O)[C@H](CCCCN)NC(=O)[C@H](CC(=O)O)NC(=O)[C@H](CC(C)C)NC(=O)C(C)(C)NC(=O)[C@@H](NC(=O)[C@H](CO)NC(=O)[C@H](Cc1ccc(O)cc1)NC(=O)[C@H](CC(=O)O)NC(=O)[C@H](CO)NC(=O)[C@@H](NC(=O)[C@H](Cc1ccccc1)NC(=O)[C@@H](NC(=O)CNC(=O)[C@H](CCC(=O)O)NC(=O)C(C)(C)NC(=O)[C@H](Cc1ccc(O)cc1)NC(=O)[C@@H](NC(=O)[C@@H](N)CCCCNC(=O)CC[C@H](NC(=O)CCCCCCCCCCCCCCC(=O)O)C(=O)O)C(C)C)[C@@H](C)O)[C@@H](C)O)[C@@H](C)CC)[C@@H](C)CC)C(C)C)C(=O)N[C@@H](C)C(=O)NCC(=O)NCC(=O)N1CCC[C@H]1C(=O)N[C@@H](CO)C(=O)N[C@@H](CO)C(=O)NCC(=O)N[C@@H](C)C(=O)N1CCC[C@H]1C(=O)N1CCC[C@H]1C(=O)N1CCC[C@H]1C(=O)N[C@@H](CO)C(N)=O` [Non-converting compound 4]: in the data set “in vivo”, the AUC/Dose was determined as 18.9 kg·h/L, the Cmax/Dose worked out at 0.16 kg/L, the Tmax turned out to be 7 h and the half-life was 136 h.

As to `CC[C@H](C)[C@H](NC(=O)[C@H](Cc1ccccc1)NC(=O)[C@H](CCC(=O)O)NC(=O)[C@H](CCCNC(=N)N)NC(=O)[C@H](C)NC(=O)[C@H](C)NC(=O)[C@H](CCC(N)=O)NC(=O)[C@H](CCC(=O)O)NC(=O)[C@H](CCC(=O)O)NC(=O)[C@H](CC(C)C)NC(=O)[C@H](CC(C)C)NC(=O)[C@@H](NC(=O)[C@H](CO)NC(=O)[C@H](Cc1ccc(O)cc1)NC(=O)[C@H](CC(=O)O)NC(=O)[C@H](CO)NC(=O)[C@@H](NC(=O)[C@H](Cc1ccccc1)NC(=O)[C@@H](NC(=O)CNC(=O)[C@H](CCC(=O)O)NC(=O)C(C)(C)NC(=O)[C@@H](N)Cc1ccc(O)cc1)[C@@H](C)O)[C@@H](C)O)[C@@H](C)CC)C(=O)N[C@@H](CCC(=O)O)C(=O)N[C@@H](Cc1c[nH]c2ccccc12)C(=O)N[C@@H](CC(C)C)C(=O)N[C@@H](CC(C)C)C(=O)N[C@@H](C)C(=O)NCC(=O)NCC(=O)N1CCC[C@H]1C(=O)N[C@@H](CO)C(=O)N[C@@H](CCCCNC(=O)[C@@H](N)CCCCNC(=O)[C@@H](N)CCCCNC(=O)CC[C@H](NC(=O)CCCCCCCCCCCCCCCCC(=O)O)C(=O)O)C(=O)NCC(=O)N[C@@H](C)C(=O)N1CCC[C@H]1C(=O)N1CCC[C@H]1C(=O)N1CCC[C@H]1C(=O)N[C@@H](CO)C(=O)O` [Parent compound 3] (H-Y[Aib]EGTFTSDYSILLEEQAAREFIEWLLAGGPSK([εLys-εLys-γGlu-C18 diacid])GAPPPS-OH), in “in vivo”, the AUC/Dose was 21.4 kg·h/L and the Cmax/Dose was found to be 0.22 kg/L.

Turning to `CC[C@H](C)[C@H](NC(=O)[C@H](CC(C)C)NC(=O)[C@H](Cc1c[nH]c2ccccc12)NC(=O)[C@H](CCC(N)=O)NC(=O)[C@@H](NC(=O)[C@H](Cc1ccccc1)NC(=O)[C@H](C)NC(=O)[C@H](CCCCNC(=O)COCCOCCNC(=O)COCCOCCNC(=O)CC[C@H](NC(=O)CCCCCCCCCCCCCCCCCCC(=O)O)C(=O)O)NC(=O)[C@H](CCC(N)=O)NC(=O)[C@H](C)NC(=O)[C@@H](NC(=O)[C@H](CCCCN)NC(=O)[C@H](CC(=O)O)NC(=O)[C@H](CC(C)C)NC(=O)C(C)(C)NC(=O)[C@@H](NC(=O)[C@H](CO)NC(=O)[C@H](Cc1ccc(O)cc1)NC(=O)[C@H](CC(=O)O)NC(=O)[C@H](CO)NC(=O)[C@@H](NC(=O)[C@H](Cc1ccccc1)NC(=O)[C@@H](NC(=O)CNC(=O)[C@H](CCC(=O)O)NC(=O)C(C)(C)NC(=O)[C@@H](N)Cc1ccc(O)cc1)[C@@H](C)O)[C@@H](C)O)[C@@H](C)CC)[C@@H](C)CC)C(C)C)C(=O)N[C@@H](C)C(=O)NCC(=O)NCC(=O)N1CCC[C@H]1C(=O)N[C@@H](CO)C(=O)N[C@@H](CO)C(=O)NCC(=O)N[C@@H](C)C(=O)N1CCC[C@H]1C(=O)N1CCC[C@H]1C(=O)N1CCC[C@H]1C(=O)N[C@@H](CO)C(N)=O` [Parent compound 5], in the data set “in vivo”, the AUC/Dose amounted to 13.0 kg·h/L, the Cmax/Dose was determined as 0.22 kg/L, the Tmax came to 1 h and the half-life was 134 h.

“H-A[N(2-Aminoethyl)Gly]([γGlu-C16 diacid])Y[Aib]EGTFTSDYSILLEEQAAREFIEWLLAGGPSK([AEEA-AEEA-γGlu-C16 diacid])GAPPPS-OH [Compound 4]”: in “physchem”, the half-life at 100 μM was 97 h.

The molecule “H-D[N(2-Aminoethyl)Gly]([γGlu-C16 diacid])Y[Aib]EGTFTSDYSILLEEQAAREFIEWLLAGGPSK([AEEA-AEEA-γGlu-C16 diacid])GAPPPS-OH [Compound 7]” gave a half-life at 100 μM in the data set “physchem” of 38 h.

Consider “H-G[N(2-Aminoethyl)Gly]([γGlu-C16 diacid])Y[Aib]EGTFTSDYSILLEK([εLys-εLys-γGlu-C18 diacid])QAAREFIEWLLAGGPSSGAPPPS-OH [Compound 17]”, for which, in “in vivo”, the AUC/Dose was 30.4 kg·h/L, the Cmax/Dose is 0.30 kg/L, the Tmax is 1.5 h and the half-life is 105 h.

Take “H-K([γGlu-C16 diacid])VY[Aib]EGTFTSDYSILLEEQAAREFIEWLLAGGPSK([εLys-εLys-γGlu-C16 diacid])GAPPPS-OH [Non-converting compound 2]”: in “in vivo”, the AUC/Dose worked out at 10.8 kg·h/L, the Cmax/Dose was 0.13 kg/L, the Tmax turned out to be 1.3 h and the half-life was 130 h.

Take “H-K([γGlu-C16 diacid])VY[Aib]EGTFTSDYSILLEK([εLys-εLys-γGlu-C18 diacid])QAAREFIEWLLAGGPSSGAPPPS-OH [Non-converting compound 3]”: in the data set “in vivo”, the AUC/Dose came out at 31.4 kg·h/L, the Cmax/Dose amounted to 0.27 kg/L, the time of peak concentration (Tmax) turned out to be 4 h and the half-life was 115 h.

Take “H-K([γGlu-γGlu-C16 diacid])[Sar]Y[Aib]EGTFTSDYSILLEEQAAREFIEWLLAGGPSK([AEEA-AEEA-γGlu-C16 diacid])GAPPPS-OH [Compound 8]”: the half-life at 100 μM in “physchem” was 125 h.

In “physchem”, “H-P[N(2-Aminoethyl)Gly]([γGlu-C16 diacid])Y[Aib]EGTFTSDYSILLEEQAAREFIEWLLAGGPSK([AEEA-AEEA-γGlu-C16 diacid])GAPPPS-OH [Compound 6]” gave a half-life at 100 μM of 440 h.

With “H-[dK]([εLys-γGlu-C16 diacid])[Sar]Y[Aib]EGTFTSDYSILLEEQAAREFIEWLLAGGPSK([AEEA-AEEA-γGlu-C16 diacid])GAPPPS-OH [Compound 11]”, the half-life at 100 μM in the data set “physchem” is 182 h.
